Results reported in PMC5059743, “Crystal structures of the human elongation factor eEFSec suggest a non-canonical mechanism for selenocysteine incorporation” (Nature Communications, 2016).
Where a chain is given by its changes, count along the chain named.

Legend:
Assay in all cases: isothermal titration calorimetry
Type in all cases: binding
human eEFSec [1] = molecular target: T1, human eEFSec (Homo sapiens, UniProt P57772)
T1 construct: intact full-length, N-terminal 6xHis tag (pET15b, no tag removal described), E. coli Lemo21(DE3); monomer in solution; SeMet form also made for phasing
T1 sequence (P57772 1-596): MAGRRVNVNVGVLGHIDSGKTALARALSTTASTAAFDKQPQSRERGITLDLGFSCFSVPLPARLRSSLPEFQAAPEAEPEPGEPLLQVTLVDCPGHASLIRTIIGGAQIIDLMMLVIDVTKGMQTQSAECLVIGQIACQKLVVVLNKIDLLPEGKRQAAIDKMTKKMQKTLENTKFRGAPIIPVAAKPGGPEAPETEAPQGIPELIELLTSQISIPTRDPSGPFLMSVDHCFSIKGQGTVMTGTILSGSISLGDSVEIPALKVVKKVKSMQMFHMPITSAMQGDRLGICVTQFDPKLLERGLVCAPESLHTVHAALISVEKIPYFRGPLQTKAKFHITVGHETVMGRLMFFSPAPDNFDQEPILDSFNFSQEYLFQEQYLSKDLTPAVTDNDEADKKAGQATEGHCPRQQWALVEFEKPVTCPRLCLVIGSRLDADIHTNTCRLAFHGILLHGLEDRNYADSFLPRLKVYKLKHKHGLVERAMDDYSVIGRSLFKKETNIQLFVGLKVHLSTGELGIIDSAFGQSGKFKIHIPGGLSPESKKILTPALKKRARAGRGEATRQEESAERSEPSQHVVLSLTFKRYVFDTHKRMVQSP

human eEFSec [2] = molecular target: T2, human eEFSec (Homo sapiens, UniProt P57772, D92A)
T2 construct: intact full-length, N-terminal 6xHis tag (pET15b, no tag removal described), E. coli Lemo21(DE3); monomer in solution; SeMet form also made for phasing
T2 sequence (P57772 1-596 D92A): T1 sequence (P57772 1-596) with D92A

human eEFSec [3] = molecular target: T3, human eEFSec (Homo sapiens, UniProt P57772, H96A)
T3 construct: intact full-length, N-terminal 6xHis tag (pET15b, no tag removal described), E. coli Lemo21(DE3); monomer in solution; SeMet form also made for phasing
T3 sequence (P57772 1-596 H96A): T1 sequence (P57772 1-596) with H96A

human eEFSec [4] = molecular target: T4, human eEFSec (Homo sapiens, UniProt P57772, T48A)
T4 construct: intact full-length, N-terminal 6xHis tag (pET15b, no tag removal described), E. coli Lemo21(DE3); monomer in solution; SeMet form also made for phasing
T4 sequence (P57772 1-596 T48A): T1 sequence (P57772 1-596) with T48A

Row | Compound | Kd (human eEFSec [1]) [µM] | Kd (human eEFSec [2]) [µM] | Kd (human eEFSec [3]) [µM] | Kd (human eEFSec [4]) [µM]
1 | Nc1nc(O)c2ncn([C@@H]3O[C@H](COP(=O)(O)OP(=O)(O)C[P+]([O-])(O)O)[C@@H](O)[C@H]3O)c2n1 [GDPCP] | 1.85 ± 0.24 |  |  | 
2 | Nc1nc2c(ncn2[C@@H]2O[C@H](COP(=O)(O)OP(=O)(O)OP(O)(O)=S)[C@@H](O)[C@H]2O)c(=O)[nH]1 [GTPγS] | 0.48 ± 0.06 |  |  | 

More lines, now with the values ahead:

Row | Kd (human eEFSec [1]) [µM] | Kd (human eEFSec [2]) [µM] | Kd (human eEFSec [3]) [µM] | Kd (human eEFSec [4]) [µM] | Compound
3 | 1.2 ± 0.47 |  |  |  | Nc1nc2c(ncn2[C@@H]2O[C@H](COP(=O)(O)OP(=O)(O)NP(=O)(O)O)[C@@H](O)[C@H]2O)c(=O)[nH]1 [GDPNP]
4 | 0.19 ± 0.05 | 1.5 ± 0.13 | 1.3 ± 0.24 | 0.24 ± 0.05 | Nc1nc2c(ncn2[C@@H]2O[C@H](COP(=O)(O)OP(=O)(O)O)[C@@H](O)[C@H]2O)c(=O)[nH]1 [GDP]
5 | 1.21 ± 0.26 | 8.47 ± 0.49 | 1.6 ± 0.75 | 1.82 ± 0.11 | Nc1nc2c(ncn2[C@@H]2O[C@H](COP(=O)(O)OP(=O)(O)OP(=O)(O)O)[C@@H](O)[C@H]2O)c(=O)[nH]1 [GTP]
